Test results reported in US20200003760A1, “IN-VITRO METHODS FOR CLASSIFYING DRUGS ACCORDING TO THEIR POTENTIAL TO CAUSE LIVER CELL INJURY” (Board of Trustees of Michigan State University, priority 2018, published 2020).
Like-named read-outs stand apart in the source and are kept apart here. Each block holds one compound with its values, some of them ahead of it.

Legend:
[1] = Logistic regression classification model: probability that a drug is associated with IDILI; design: species or system human; conditions: probability that drug is associated with IDILI; covariates Deltadiff, EC50 VEH, EC50 TNF, Delta VEH, Cmax; optimal cutoff 0.46
From the text: Classification modeling using defined covariates. In the second phase of analysis, classification models were developed using logistic regression with covariates as independent variables in the analysis and known IDILI classification as the dependent variable. A model selection process was used to determine if a covariate or set of covariates is associated with IDILI liability. Covariates were first evaluated individually to determine how well a particular covariate classified drugs according to IDILI liability, and then covariates were evaluated in combination. Combinations of covariates were selected to maximize the ability of the model to distinguish between drugs associated or not with IDILI. Specifically, covariates that describe changes in efficacy (Delta, Deltadiff, etc.) were paired with covariates that describe changes in potency (EC50, EC10, R10, etc.) to find covariate combinations that led to models that most accurately discriminated between drugs that are and are not associated with IDILI. […] The logistic regression models follow the equation: […]
where ŷi is the calculated (predicted) probability that drug i with a vector of covariates xi is associated with IDILI. The β coefficients (β0, the regression intercept; and βi, the regression slopes for model covariates, xi) were derived from the logistic regression models using 1) combinations of the covariates (xi) generated by concentration-response modeling for each of the 24 drugs evaluated in this study, and 2) the true IDILI classification for the dependent variable yi (i.e., 1 for IDILI+drugs and 0 for IDILI-drugs). […] This occurs when a covariate almost perfectly separates observations into the appropriate categories. […] When separation or quasi-complete separation occurs, use of the standard method (i.e., maximum likelihood estimation) provides biased, unreliable estimates of βi.
Receiver operating characteristic (ROC) analysis. In the third phase of the statistical approach, the classification models, generated as logistic regression models using single covariates or combinations of covariates, were evaluated by ROC analysis to determine which model and corresponding sets of covariates led to the most accurate classification of drugs according to their potential to cause IDILI. An ROC curve was created for each model by graphing the true positive rate (sensitivity; i.e., proportion of drugs correctly classified as associated with IDILI) against the false positive rate (1-specificity; i.e., proportion of drugs incorrectly classified as associated with IDILI) at various probability cutoff thresholds (k). […] An area under the curve (AUC) and confidence interval was computed for each ROC curve (where each logistic regression model has one ROC curve). […] Corresponding to each ROC curve is an optimal threshold value (k*), the threshold yielding the highest point of accuracy on the curve (i.e., the point nearest the point […] on the curve). Thus, each ROC curve has a corresponding AUC and an optimal cutoff (k*) that corresponds to the highest point of accuracy on that ROC curve.

[2] = test system: HepG2 cells; assay: Drug/cytokine-induced cytotoxicity (% LDH release) concentration-response in HepG2 cells; assay type: cell-based, human; design: key to Deltadiff: LDH release percentage points (drug/TNF Delta minus drug/VEH Delta); conditions: for R10 / R10 IFN / R10 TNF / R10 TNF/IFN: 10 percent increase in LDH response above min, 0 when D10 = 0; for R10 / Emax / D10 (LDH rise of at least 10 points, yes/no) / EC10: drug alone (VEH); for R10 IFN: with IFN; for R10 TNF: with TNF; for R10 TNF/IFN / EC10 TNF/IFN: with TNF and IFN; for Deltadiff: Delta of drug/TNF curve minus Delta of drug/VEH curve (LDH percentage); for Emax / D10 (LDH rise of at least 10 points, yes/no): Homo sapiens, HepG2; for TNF change: D10TNF − D10VEH; for EC10 TNF/IFN / EC10 IFN / EC10 TNF: value corresponding to 10% of Delta; for EC10 TNF/IFN / EC10 / EC10 IFN / EC10 TNF: NA = no significant increase; for cytotoxic interaction of drug with TNF: TNF 10 ng/ml; for effect of IFN coexposure on the drug/TNF cytotoxic interaction: TNF and IFN 10 ng/ml each; for cytotoxicity of drug on its own (LDH release): absence of cytokines; for EC10: value corresponding to 10% of Delta (max-min); for EC10 IFN: with IFN 10 ng/ml; for EC10 TNF: with TNF 10 ng/ml
Experimental: Cells were passed or used for experiments when they reached approximately 80% confluence. Cells were used at passage 6-16.
HepG2 cells were plated at a density of 4×10^4 cells per well in black-walled, 96-well, tissue culture plates and were allowed to attach overnight before being treated with compounds. Drugs were reconstituted in vehicles consisting of sterile water or DMSO (concentration less than 0.5%). Cells were treated with various concentrations of the drug or its vehicle (control) alone or in combination with the cytokines TNF (10 ng/ml) and/or IFN (10 ng/ml) or their PBS vehicle (VEH). Cytotoxicity was evaluated as lactate dehydrogenase (LDH) activity released from the cells into culture medium using the Homogeneous Membrane Integrity Assay kit from Promega (Madison, Wis.).
Concentration-response curves were generated for 24 drugs, 14 of which are associated with human IDILI and 10 of which are not. […] This was necessary because four-parameter logistic modeling used in the statistical analysis requires well defined, sigmoidal concentration-response curves. Cells were exposed to drug/cytokine combinations for 24 hours. For analysis of drug concentration-response data, concentrations of each drug were expressed as a fraction of its Cmax.
Defining covariates: four-parameter logistic model. In the first phase, variables (potential covariates) for use in the classification analysis were defined from the analysis of drug concentration-response data. Initially, a one-way analysis of variance (ANOVA) was used as an omnibus test to determine if a particular treatment (e.g. drug alone or in combination with TNF and/or IFN) caused a significant change in LDH release relative to baseline (i.e., LDH release in the absence of drug, hereafter designated “min”). The criterion for significance for the ANOVA was set at α=0.01. A 1% level of significance was used to rule out more vigorously marginal relationships between concentration and response.
where LDH(x) is the percentage of LDH released at a given concentration x; x=[drug]/Cmax; min=the % LDH release at 0 drug concentration (i.e., baseline); and max=the maximal LDH response (i.e., maximum % LDH release).
where D10 is a categorical variable related to reaching a threshold LDH response above which a drug is classified as positively associated with IDILI. D10 is defined as 0 if Delta<10% LDH release and as 1 if Delta≥10% LDH release.
The base covariate R10 represents the [drug]/Cmax value associated with an increase in 10 LDH percentage points above min for a particular treatment condition and was determined by the equation:
R10 was considered to be 0 when the Delta<10% LDH (i.e. when D10=0).
EC50 quotient, EC10 quotient and R10 quotient represent the ratio between the EC50, EC10 or R10 of the drug/cytokine concentration-response curve and the respective value for the drug/VEH concentration-response curve. In some instances, the value derived from this calculation is indeterminate (i.e. when the denominator=0). In order to incorporate the quotient values into the classification models described below, the categorical variable “Q” was used to eliminate the possibility of the quotient being indeterminate. Q is defined as 0 if Delta VEH and/or Delta cytokine is <10% LDH and 1 if both Delta VEH and Delta cytokine are ≥10% LDH. […] The same condition was applied for calculation of EC10 quotient and R10 quotient.
Deltadiff represents the difference between the Delta of the drug/cytokine concentration-response curve and the Delta of the drug/VEH curve. In other words, Deltadiff=(Delta cytokine)−(Delta VEH). FIG. 1 graphically illustrates several of the covariates defined above. […] In addition to the covariates derived from the concentration-response curves, the maximal therapeutic plasma drug concentration (Cmax) in human patients was used in some models (Table 1).

[3] = maximal plasma concentration after pharmacologic dosing in human patients; cited from earlier work
[4] = cited from earlier work; for True classification: IDILI in human patients; for IDILI liability: criteria of Xu et al. (2008)
[5] = categorical, Delta threshold 10 LDH percentage points, read-out: D10
[6] = maximal LDH response, 24 h, read-out: max
[7] = categorical, Delta threshold 10 LDH percentage points

Structure (SMILES): CC[C@H]1OC(=O)[C@H](C)[C@@H](O[C@H]2C[C@@](C)(OC)[C@@H](O)[C@H](C)O2)[C@H](C)[C@@H](O[C@@H]2O[C@H](C)C[C@H](N(C)C)[C@H]2O)[C@](C)(O)C[C@@H](C)CN(C)[C@H](C)[C@@H](O)[C@]1(C)O [Azithromycin]
Estimated probability [1]: 0.1276 | R10 [2]: 0 [drug]/Cmax | R10 IFN [2]: 0 [drug]/Cmax | R10 TNF [2]: 0 [drug]/Cmax | R10 TNF/IFN [2]: 333.9 [drug]/Cmax | Deltadiff [2]: 0 | synergy with cytokines to kill HepG2 cells ([2]; HepG2, 24 h, TNF and/or IFN): modestly cytotoxic in the presence of TNF/IFN | Emax [2, 5]: < 10% | Emax [2, 6]: 11.6% | TNF change ([2]; categorical): 0 | EC10 TNF/IFN [2]: 59.2 [drug]/Cmax | Cmax [3]: 0.5 µM | True classification [4]: IDILI− | IDILI liability [4]: IDILI−

Structure (SMILES): CC(=O)Oc1ccccc1C(=O)O [Aspirin]
Estimated probability [1]: 0.1445 | R10 [2]: 0 [drug]/Cmax | R10 IFN [2]: 0 [drug]/Cmax | R10 TNF [2]: 0 [drug]/Cmax | R10 TNF/IFN [2]: 0 [drug]/Cmax | Deltadiff [2]: 0 | Emax [2, 5]: < 10% | Emax [2, 6]: 11% | TNF change ([2]; categorical): 0 | Cmax [3]: 47 µM | True classification [4]: IDILI− | IDILI liability [4]: IDILI−

Structure (SMILES): Nc1c(CC(=O)O)cccc1C(=O)c1ccc(Br)cc1 [Bromfenac]
Estimated probability [1]: 0.9397 | R10 [2]: 0 [drug]/Cmax | R10 IFN [2]: 0 [drug]/Cmax | R10 TNF [2]: 40.6 [drug]/Cmax | R10 TNF/IFN [2]: 28.9 [drug]/Cmax | Deltadiff [2]: 22.6 | cytotoxic interaction of drug with TNF ([2]; HepG2, 24 h): synergized with TNF to cause cytotoxicity | effect of IFN coexposure on the drug/TNF cytotoxic interaction ([2]; HepG2, 24 h): coexposure to IFN enhanced the cytotoxic interaction | cytotoxicity of drug on its own (LDH release) ([2]; HepG2, 24 h): caused no cytotoxicity on their own | Emax [2, 5]: < 10% | Emax [2, 6]: 13.8% | TNF change ([2]; categorical): 1 | EC10 TNF [2]: 22.6 [drug]/Cmax | EC10 TNF/IFN [2]: 18.9 [drug]/Cmax | Cmax [3]: 13.5 µM | True classification [4]: IDILI+ | IDILI liability [4]: IDILI+

Continued, in another order:

Estimated probability [1]: 0.961
Structure (SMILES): CN(C)CCCN1c2ccccc2Sc2ccc(Cl)cc21 [Chlorpromazine]
R10 [2]: 36.0 [drug]/Cmax | R10 IFN [2]: 34.8 [drug]/Cmax | R10 TNF [2]: 31.5 [drug]/Cmax | R10 TNF/IFN [2]: 25.3 [drug]/Cmax | Deltadiff [2]: −15.3 | cytotoxic interaction of drug with TNF ([2]; HepG2, 24 h): TNF significantly enhanced the cytotoxicity | effect of IFN coexposure on the drug/TNF cytotoxic interaction ([2]; HepG2, 24 h): coexposure to IFN enhanced the cytotoxic interaction | cytotoxicity of drug on its own (LDH release) ([2]; HepG2, 24 h): statistically significant increase in LDH release | D10 (LDH rise of at least 10 points, yes/no) [2, 7]: > 10% | Emax [2, 6]: 111% | EC10 [2]: 35.8 [drug]/Cmax | EC10 IFN [2]: 34.1 [drug]/Cmax | EC10 TNF [2]: 30.5 [drug]/Cmax | EC10 TNF/IFN [2]: 24.1 [drug]/Cmax | Cmax [3]: 0.84 µM | True classification [4]: IDILI+ | IDILI liability [4]: IDILI+

Estimated probability [1]: 0.1275
Structure (SMILES): CC(=O)[C@]1(O)Cc2c(O)c3c(c(O)c2[C@@H](O[C@H]2C[C@H](N)[C@H](O)[C@H](C)O2)C1)C(=O)c1ccccc1C3=O [Idarubicin]
R10 [2]: 0 [drug]/Cmax | R10 IFN [2]: 0 [drug]/Cmax | R10 TNF [2]: 0 [drug]/Cmax | R10 TNF/IFN [2]: 0 [drug]/Cmax | Deltadiff [2]: 0 | Emax [2, 5]: < 10% | Emax [2, 6]: 13.9% | TNF change ([2]; categorical): 0 | Cmax [3]: 0.02 µM | True classification [4]: IDILI− | IDILI liability [4]: IDILI−

Estimated probability [1]: 0.7562
Structure (SMILES): NNC(=O)c1ccncc1 [Isoniazid]
R10 [2]: 440.9 [drug]/Cmax | R10 IFN [2]: 434.0 [drug]/Cmax | R10 TNF [2]: 268.1 [drug]/Cmax | R10 TNF/IFN [2]: 208.7 [drug]/Cmax | Deltadiff [2]: 38.8 | cytotoxic interaction of drug with TNF ([2]; HepG2, 24 h): TNF significantly enhanced the cytotoxicity | effect of IFN coexposure on the drug/TNF cytotoxic interaction ([2]; HepG2, 24 h): coexposure to IFN enhanced the cytotoxic interaction | cytotoxicity of drug on its own (LDH release) ([2]; HepG2, 24 h): statistically significant increase in LDH release | D10 (LDH rise of at least 10 points, yes/no) [2, 7]: > 10% | Emax [2, 6]: 57.7% | TNF change ([2]; categorical): 0 | EC10 [2]: 427.0 [drug]/Cmax | EC10 IFN [2]: 420.5 [drug]/Cmax | EC10 TNF [2]: 248.0 [drug]/Cmax | EC10 TNF/IFN [2]: 169.7 [drug]/Cmax | Cmax [3]: 77 µM | True classification [4]: IDILI+ | IDILI liability [4]: IDILI+
